# Results taken from article PMC11472310, “Distinctive Immune Signatures Driven by Structural Alterations in Desmuramylpeptide NOD2 Agonists” (Journal of Medicinal Chemistry, 2024).
# Legend:
# [1] = test system: PBMCs; assay: Direct cytotoxic effect of compounds on PBMCs (Sytox blue); type: cell-based; settings: Table S2; for Percent of dead PBMCs, + LPS: 10 μM + LPS 1 μg/mL; for Percent of dead PBMCs: alone: compounds 10 μM, LPS 1 μg/mL, IL-2 200 U/mL
# Protocol: Additionally, PBMCs and cancer cells alone were treated with desmuramylpeptides to assess any direct cytotoxic effects on these cells.
# The PBMC cytotoxicity assays utilizing K562 cells were conducted following previously established methods, with some adjustments.[82] […] Meanwhile, K562 cells were stained with CFSE (Invitrogen, Carlsbad, CA, USA), washed twice with complete medium, and then added (1 × 10^4 cells per well) to the pretreated PBMCs to achieve a final effector cell to target tumor cell ratio of 40:1. Following a 4-h coincubation period at 37 °C with 5% CO2, cells were stained with Sytox blue dead cell stain (Invitrogen) and analyzed using an Attune NxT flow cytometer (Thermo Fisher Scientific, Waltham, MA, USA) along with FlowJo software (Tree Star, Inc., Ashland, OR, USA). Cells positive for both CFSE and Sytox blue were designated as dead K562 cells. PBMCs alone and CFSE-labeled cancer cells alone were also exposed to the compounds at equivalent concentrations and stained with Sytox blue to assess any direct cytotoxic effects of the compounds on PBMCs and cancer cells separately. Each experiment was conducted in duplicate and repeated in three independent biological replicates. Statistical analysis was performed using one-way ANOVA followed by Dunnett’s multiple comparisons test.
# [2] = test system: human blood monocyte subsets; assay: Monocyte conversion assay in PBMCs (CD14/CD16 flow cytometry); type: cell-based; settings: 10 μM, 18 h, NT 19.5%
# Excerpt: Engagement of NOD2 has been reported to increase the levels of an anti-inflammatory monocyte subset, denoted as patrolling monocytes (CD14^–, CD16^+2), thus exerting a counterintuitive role in inflammatory processes, while concomitantly increasing the levels of total blood monocytes (released from bone marrow).[18] […] This process involves a transition from the inflammatory monocytes, typified by CD14^+CD16^–, through an intermediate subset of CD14^+CD16^+ monocytes. […] To recapitulate this phenomenon, we modified the reported procedure and employed PBMCs in lieu of isolated monocytes. Identification of human blood monocyte subsets was achieved through flow cytometry, utilizing the expression of CD14 and CD16 markers as distinguishing criteria. […] Similar to what has been reported (e.g., inactivity of murabutide),[18] also in our case not all NOD2 agonists were equally endowed with the ability to generate patrolling monocytes.
# The monocyte conversion assay was conducted following previously established methods, with some adjustments.[18] Peripheral blood mononuclear cells were plated at a density of 3 × 10^6 cells/mL in 24-well plates containing 700 μL of growth medium. Cells were then treated with MDP and desmuramylpeptides (10 μM) or the corresponding vehicle (0.1% DMSO). Following an incubation period at 37 °C with 5% CO2, cells were transferred to 1.5 mL tube using phosphate-buffered saline (PBS) and scraper. The cells were blocked with human TruStain Fcx (BioLegend) and stained using antihuman CD16 antibodies/Alexa Fluor 488 (BioLegend); antihuman CD14 antibodies/PE-Cy7 (BioLegend); antihuman HLA-DR antibodies/APC-Fire750 (BioLegend) and blocked with TrueStain Monocyte Blocker. A viability dye Helix NP Blue (BioLegend) was added to the previous panel to discriminate live cells. PBMC were analyzed using an Attune NxT flow cytometer (Thermo Fisher Scientific, Waltham, MA, USA) and the FlowJo software (Tree Star, Inc., Ashland, OR, USA). Initially, lymphocytes (CD14^–, CD16^–) and NK (CD16^–, HLA-DR^–) were eliminated, after which classical, intermediate and nonclassical monocytes were specifically identified by selective gating strategy as follows: CD14^+ CD16^– (classical), CD14^+ CD16^+ (intermediate) and CD14^– CD16^+ (nonclassical). Each experiment was conducted in duplicate and repeated in three independent biological replicates.
# [3] = test system: CD4+ T cells cocultured with BMDCs; assay: BMDC antigen presentation to ovalbumin-specific CD4+ T cells (OT II); type: cell-based, C57BL/6 mouse; settings: BMDCs pretreated 10 μM + ovalbumin 50 μg/mL 18 h, coculture 72 h; OVA-treated cells 63.8%
# Protocol: For this study, we narrowed down the selection of suitable desmuramylpeptides even further. In order to assess the adjuvant potential of selected desmuramylpeptides with regard to their effect on DC-mediated activation of CD4^+ and CD8^+ T cells, we conducted an ex vivo antigen-presentation assay utilizing C57BL/6 mouse bone marrow-derived DCs (BMDCs). Upon stimulation with desmuramylpeptides at 10 μM, in conjunction with ovalbumin soluble protein (50 μg/mL), BMDCs were cocultured with carboxyfluorescein succinimidyl ester (CFSE)-labeled naïve ovalbumin-specific CD4^+ or CD8^+ T cells, which were isolated from splenocytes of OT II and OT I transgenic mice, respectively. […] Additionally, we investigated how the priming of T cells elicited by the tested compounds impacted the cytokine profiles secreted in BMDC/T-cell cocultures.
# CD4^+ and CD8^+ T cells were isolated from splenocytes of OT II and OT I transgenic mice using CD4^+ and CD8^+ T cell isolation kits (Miltenyi Biotec, Germany) following the manufacturer’s instructions. The purified T cells were labeled with CFSE (Invitrogen, Carlsbad, CA, USA) and subsequently washed. Next, 5 × 10^4 T cells were combined with 1 × 10^4 BMDCs/well (pretreated with desmuramylpeptides at 10 μM and 50 μg/mL ovalbumin [Invivogen, San Diego, CA, USA] for 18 h and then washed). Following a 72-h incubation period at 37 °C with 5% CO2, supernatants were harvested and stored at −80 °C for cytokine analysis. The cells were then stained with Fixable viability dye eFluor 780 (eBioscience, Thermo Fisher Scientific, MA, USA), anti-Thy1.2-PE-Cy7 antibodies (Biolegend, San Diego, CA, USA), anti-CD8-eFluor450 antibodies (eBioscience), anti-CD4-eFluor450 antibodies (eBioscience), and anti-CD25-APC antibodies (Biolegend) before analysis using a Beckman Coulter Cytoflex S flow cytometer (CA, USA) and FlowJo software (Tree Star, Inc., Ashland, OR, USA). Live Thy1.2+/CD4+ and Thy1.2+/CD8+ cells were assessed for CFSE dilution and CD25 expression. Each experiment was performed in duplicate and repeated in two independent biological replicates. Statistical significance was determined using paired t tests.
Compound,"Percent of dead PBMCs, + LPS [1]",Percent of dead PBMCs [1],levels of nonclassical monocytes [2],"fraction of activated and proliferating CD4+ T-cells (CD25+, CFSE low) [3]"
"CCCC(=O)Oc1ccc(/C=C/C(=O)NCC(=O)N[C@H](C(=O)N[C@H](CCC(=O)OCC)C(=O)OCC)C(C)C)cc1OC [Compound 3, Diethyl ((E)-3-(4-(Butyryloxy)-3-methoxyphenyl)acryloyl)glycyl-L-valyl-D-glutamate]",3.34% ± 0.35%,1.14% ± 0.23%,31.9%,77.9%
"CC/C=C\C/C=C\C/C=C\C/C=C\C/C=C\CCCC(=O)Oc1ccc(/C=C/C(=O)NCC(=O)N[C@H](C(=O)N[C@H](CCC(=O)OCC)C(=O)OCC)C(C)C)cc1OC [Compound 23, Diethyl ((E)-3-(4-(((5Z,8Z,11Z,14Z,17Z)-Icosa-5,8,11,14,17-pentaenoyl)oxy)-3-methoxyphenyl)acryloyl)glycyl-L-valyl-D-glutamate]",11.4% ± 2.64%,1.28% ± 0.06%,31.0%,79.7%
"CCOC(=O)CC[C@@H](NC(=O)[C@@H](NC(=O)CNC(=O)/C=C/c1ccc(OC(=O)CO[C@H]2CC[C@@]3(C)C(=CC[C@H]4[C@@H]5CC[C@H]([C@H](C)CCCC(C)C)[C@@]5(C)CC[C@@H]43)C2)c(OC)c1)C(C)C)C(=O)OCC [Compound 26, Diethyl ((E)-3-(4-(2-(((8S,9S,10R,13R,14S,17R)-10,13-Dimethyl-17-((R)-6-methylheptan-2-yl)-2,3,4,7,8,9,10,11,12,13,14,15,16,17-tetradecahydro-1H-cyclopenta[a]phenanthren-3-yl)oxy)acetoxy)-3-methoxyphenyl)acryloyl)glycyl-L-valyl-D-glutamate]",9.93% ± 0.49%,1.08% ± 0.10%,44.8%,62.7%
